Reference: patent publication US20060194776A1, “Compositions and methods for treating tissue ischemia” (priority 2003, published 2006)
Like-named read-outs stand apart in the source and are kept apart here.

What was measured:
[1] = test system: BS lectin 1 and β-gal double-positive cells; details: one week after AMI; 400×
Experimental: Apex-sections from the Tie-2/LZ/BMT mice were embedded in OCT compound (Miles Scientific) and snap-frozen in liquid nitrogen for fluorescence microscopy immediately after sacrifice. Immunohistochemical staining was performed using antibodies against the rabbit anti-B-galactosidase IgG (CORTEX Biochem) and the murine-specific EC marker fluorescein griffonia simplicifolia lectin I (Vector Laboratories).
Sections of ischemic (FIGS. 12A-12F) and intact (FIGS. 13A-13F) myocardium were stained for both BS lectin 1 (green fluorescence) and β-galactosidase (red fluorescence).

EPCs in peripheral blood = test system: EPCs in peripheral blood
Experimental: (§1) Peripheral blood mononuclear cells (PBMNCS) were isolated from 500 μl of peripheral blood obtained from each mouse. PBMNCs were cultured in EBM media (Clonetics, San Diego, Calif.) with 5% fetal bovine serum (FBS), antibiotics, and growth factors (EPC medium) on four-well glass slides coated with rat plasma vitronectin (Sigma) in 0.5% gelatin solution. Four days after culture, EPCs, recognized as attaching spindle-shaped cells, were assayed by co-staining with acetylated LDL (acLDL)-DiI (Biomedical Technologies, Stoughton, Mass.) and Bandeiraea simplicifolia (BS-1) lectin I (Vector Laboratories, Burlingame, Calif.), indicators of endothelial lineage, and conjugated with FITC (Sigma). EPCs were identified as double-positive cells under fluorescent microscopy. The number of double-positive cells per sample, measured in fifteen fields under 20× magnification, was counted in a blinded manner.
To evaluate the effect of AMD-3100 on circulating EPC kinetics, EPC counts (cells/mm^2) were taken from peripheral blood one and two weeks after AMI. At each time point after the induction of MI, mononuclear cells were isolated from peripheral blood and total BM cells that had been obtained by flushing the tibias and femurs. EPCs were counted by culturing as described in Example 1, and stained with both acLDL-DiI and BS-1 lectin. Double positive cells were counted in 15 fields under objective 20× magnification per sample in a blinded manner.

[2] = test system: X-gal positive cells (bone-marrow derived endothelial cells) in left ventricle; details: for number of X-gal positive cells: infarct and border area, Tie2-LacZ/BMT mice
Description: This Example describes the experimental design of the Tie2-LacZ/BMT mouse model. […] FVB/N background mice (n=30) were irradiated to kill their endogenous bone marrow. They were then given a bone marrow transplant (BMT) of 2×10^6 mononuclear cells (MNCs) derived from age-matched (4 weeks old) Tie2-LacZ mice (FVB/N-TgN[TIE2LacZ]182Sato, Jackson Lab). AMIs were induced in the mice (now called Tie2-LacZ/BMT mice) by LAD ligation four weeks after BMT, by which time the bone marrow of the recipient mice had been reconstituted. Right after AMI, the mice were each given a single subcutaneous injection of AMD-3100 (125 μg) or saline (control). Bone marrow cells were obtained using procedures described above. Bone marrow mononuclear cells were also isolated by density centrifugation. Tissue analysis was done at one or two weeks.
Tie-2/LZ/BMT mice were sacrificed at one and two weeks after MI. The explanted hearts were sliced in a bread-loaf fashion into transverse sections from apex to base (base-, mid-, and apex-portions). Mid-portions of the hearts were fixed in 4% paraformaldehyde for three hours at room temperature and incubated in X-gal solution overnight at 37° C. The target tissue samples were then placed in PBS [need to spell this out] and examined under a dissecting microscope for macroscopic identification of lacZ-expressing cells. Histological sections of the mid-portion heart tissue were counterstained with hematoxylin and eosin and assessed by light microscopy. The number of X-gal positive cells in six randomly chosen fields at 40× magnification were counted in a blinded manner.
Left ventricle sections of AMD-3100-treated and control Tie2-LacZ/BMT mice were analyzed one and two weeks after AMI. […] The quantitative analysis of X-gal positive cells was evaluated by histological examination of six randomly selected fields in the infarct and border area.

mice after AMI = test system: mice after AMI
Experimental: (§2) Eight-week old male FVB mice were anesthetized with sodium pentobarbital (50 mg/kg IP). The animals were intubated orally with a 22G IV catheter and artificially ventilated with a respirator (Harvard Apparatus). A left intercostal thoracotomy was performed and the ribs were retracted with 5-0 polypropylene sutures. After the pericardium was opened, the left anterior descending (LAD) branch of the left coronary artery was ligated proximal to the bifurcation between the LAD and the diagonal branch using 8-0 polypropylene sutures and visualized with a dissecting microscope. Positive end-expiratory pressure was applied to fully inflate the lungs, and the chest was closed with 7-0 polypropylene sutures. After the closure of chest wall, mice randomly received either a single subcutaneous injection of 125 μg AMD3100 (AMD group) or saline (control group). After physiological assessment at one, two and four weeks after MI, a subgroup of the mice were euthanized by intravenous administration of a lethal dose of pentobarbital.
All values were expressed as mean±the standard error of the mean. Statistical significance was evaluated using Wilcoxon Rank Sum Test for comparisons between mice receiving AMD3100 and those receiving saline. Overall survival of all the mice was assessed by Kaplan-Meier analysis. Survival in individual experimental groups was also analyzed by Fisher's extract probability test. A p value of less than 0.05 was considered statistically significant.

[3] = test system: EPCs in BM mononuclear cells; details: one week after MI
Experimental: (§3) Fluorescence-activated cell sorting (FACS) was used to identify EPCs from mononuclear cells isolated both from peripheral blood and bone marrow. The viable mononuclear cell population was analyzed for the expression of Sca-1-FITC (Pharmingen) and Flk-1 (Santa Cruz) conjugated with the corresponding phycoerythrin-labeled secondary antibody (Sigma). Isotype-identical antibodies served as negative controls. Immunofluorescence-labeled cells were fixed with 2% paraformaldehyde and analyzed by quantitative flow cytometry using a FACStar flow cytometer (Becton Dickinson) and Cell Quest Software that counted 10,000 events per sample.

[4] = test system: EPCs isolated from peripheral blood; details: one week after MI
Experimental: as §3

[5] = test system: endothelial progenitor cells (EPCs) in peripheral blood
Experimental: as §1

MMP-2 = details: one week after MI; RT-PCR
Experimental: To clarify the mechanism of BM-EPC kinetics induced by AMD3100, RT-PCR was performed for MMP-9 mRNA expression on BM-mononuclear cells one week after MI was performed. RNA was extracted from mononuclear cells isolated from bone marrow using TRIzol reagent (Invitrogen) according to the manufacture's instruction. Reverse transcriptase-polymerase chain reaction (RT-PCR) of the MMP-9 and GAPDH genes was performed using 1 μg of total RNA. PCR was performed for 25 cycles for both MMP-9 and GAPDH; each cycle maintained 94° C. for 30 seconds and 64° C. for three minutes. Amplification was carried out in 20-μl reaction mixtures containing 0.4 U Taq polymerase.

[6] = test system: FVB mice after MI (LAD ligation)
Experimental: as §2
Transthoracic echocardiography (SONOS 5500, Hewlett Packard) was performed just before MI and one, two and four weeks after MI. Left ventricular diastolic (LVDd) and systolic (LVDs) dimensions and fractional shortening were measured at the mid-papillary muscle level. Hemodynamic measurements were obtained at two and four weeks after MI using a 1.0-French high-fidelity pressure catheter (Millar Instruments, Houston, Tex.) via the left carotid artery. LV systolic pressure and maximal positive (+dP/dt) and negative (−dP/dt) pressure development were recorded after stabilization of LV function and heart rate.

left ventricle fibrosis = details: two weeks after AMI
Experimental: (§4) The explanted hearts of sacrificed mice were sliced in a bread-loaf fashion into transverse sections from apex to base (base-, mid-, and apex-portions) and fixed with 4% paraformaldehyde. Tissues were embedded in paraffin and sectioned for elastic tissue/trichrome staining and immunohistochemistry using the murine-specific EC marker Bandeiraea simplicifolia lectin I (Isolectin B4) (Vector laboratories).
(§5) Capillary density was assessed by histological examination of five randomly selected fields of tissue sections from segments of the left ventricular myocardium served by the occluded LAD. Capillaries were recognized as tubular structures positive for isolectin B4. Elastic tissue/trichrome-stained tissues from the mice four weeks after MI were used to measure the average ratio of the external circumference of fibrosis area to LV area.

[7] = test system: capillaries of left ventricular myocardium; details: two weeks after AMI
Experimental: as §4, §5

[8] = 1 week after MI, 125 μg s.c. after MI
[9] = 2 weeks after MI, 125 μg s.c. after MI
[10] = 2 weeks after MI, 125 μg s.c. after MI, listed as AMD
[11] = 4 weeks after MI, 125 μg s.c. after MI
[12] = 4 weeks after MI, 125 μg s.c. after MI, listed as AMD

## c1cc(CN2CCCNCCNCCCNCC2)ccc1CN1CCCNCCNCCCNCC1 [AMD-3100, 1,1′-[1,4-phenylene-bis(methylene)]-bis-1,4,8,11-tetraazacyclotetradecane]
[1]
  double-positive cells in a representative section: eight
  double-positive cells in another representative section: eight
  double-positive cells in tissue (merged fluorescence microscopy): marked increase
EPCs in peripheral blood; four weeks after AMI
  number of cultured EPCs: returned to basline
EPCs in peripheral blood; one week after AMI
  number of EPCs in peripheral blood: 868±210 /mm^2
EPCs in peripheral blood; two weeks after AMI
  number of EPCs in peripheral blood: 556±47 /mm^2
[2]; 1 week after AMI
  number of X-gal positive cells: 3776±113 /mm2
[2]; 2 weeks after AMI
  number of X-gal positive cells: 1906±138 μmm2
[2]; one and two weeks after AMI
  X-gal staining of the left ventricle (macroscopic) vs controls: marked increase
Mice after AMI; 14 weeks after AMI (so in the source), FIG. 4A
  mice still living: 64%
Mice after AMI; another group of mice, four weeks after MI, FIG. 4B
  mice died: 42%
Mice after AMI; four weeks after MI, FIG. 4B
  survival rate vs mice receiving saline: higher
[3]
  EPCs (Sca-1/Flk-1 positive) in BM mononuclear cells by FACS: 1.9±0.1%
[4]
  EPCs (Sca-1/Flk-1 double positive) in peripheral blood by FACS: 11.3±1.4%
[5]; 1 hour after single s.c. injection of 125 μg, FVB/N mice, peripheral blood
  maximal MNCs and EPCs (number): 613±89 cells/mm^2
[5]; after single s.c. injection of 125 μg
  time until MNC/EPC numbers returned to baseline: ≤ 24 h
[5]; single s.c. injection of 125 μg
  time of maximal MNCs and EPCs after drug administration: 1 h
MMP-2
  expression of MMP-2 in BM mononuclear cells: not
[6]; [8]
  FS (fractional shortening): 35 ± 2%
  HR (heart rate): 494 ± 24 bpm
  LVDd: 3.5 ± 0.1 mm
  LVDs: 2.2 ± 0.1 mm
[6]; [9]
  FS (fractional shortening): 34±1%
  HR (heart rate): 515 ± 16 bpm
  LV +dP/dt: 3383±104 mm Hg/s
  LV −dP/dt: 2213±113 mm Hg/s
  LVDd: 3.8±0.1 mm
  LVDs: 2.5±0.1 mm
  LVEDP: 1.6±0.4 mmHg
  LVSP: 71±2 mmHg
[6]; [10]
  FS (fractional shortening): 34±1%
  LV +dP/dt: 3475±168 mm Hg/s
  LV −dP/dt: 2842 ± 200 mm Hg/s
  LVDd: 3.8 ± 0.1 mm
  LVDs: 2.5 ± 0.1 mm
  LVEDP: 1.5±0.2 mmHg
  LVSP: 73 ± 3 mmHg
[6]; 2 weeks after MI, 125 μg s.c. after MI, listed as AMD3100
  LVDd: 3.8±0.1 mm
[6]; 3 wks after MI (as printed in text)
  LVDs: 2.5±0.2 mm
[6]; [11]
  HR (heart rate): 473 ± 26 bpm
  LV −dP/dt: 2213 ± 112 mm Hg/s
  LVDd: 4.0±0.1 mm
  LVDs: 2.6±0.2 mm
[6]; [12]
  FS (fractional shortening): 28±1%
  LV +dP/dt: 3383±104 mm Hg/s
  LVDd: 4.0 ± 0.1 mm
  LVDs: 2.9 ± 0.1 mm
  LVEDP: 1.6±0.4 mmHg
  LVSP: 71±2 mmHg
[6]; after MI, vs control group
  difference in heart rate between the two groups: no significant difference
[6]; before MI
  FS (fractional shortening): 52 ± 1%
  HR (heart rate): 510 ± 26 bpm
  LVDd: 2.8 ± 0.1 mm
  LVDs: 1.4 ± 0.1 mm
[6]; before MI and one week after MI, vs saline
  LVDd, LVDs, fractional shortening, and heart rate, difference between the groups: not significantly different
[6]; two weeks after MI, vs control
  difference in LVSP between the groups: no significant difference
Left ventricle fibrosis
  fibrosis area of left ventricle: 25±6%
[7]
  capillary density in border zone: 4005±189 /mm^2
